Key:
[1] = target: p38α (Homo sapiens, UniProt Q16539); assay: p38 in-vitro HTRF enzyme assay; type: biochemical; settings: IC50 value ranges
How it was run: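 Activated recombinant human p38α with ATP and 100 nM GST-ATF2-Avitag, 1 h at RT in Tris pH 7.5/MgCl2 buffer; compound 10-point 3-fold series from about 1 μM final. HTRF 665/620 nm ratio; IC50 from 4-parameter fit, Ki via Cheng-Prusoff with experimental ATP Km.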

[2] = test system: monocytes; assay: Lipopolysaccharide-activated monocyte TNF production assay (LPS induced TNF release); type: cell-based, human; settings: Homo sapiens, Monocyte; LPS induced TNF release from monocytes; read-out: LPS induced TNFa
How it was run: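 Adherent monocytes from human PBMCs were pretreated with compound 60 min, then stimulated with E. coli LPS (30 ng/mL stock added) for 4 h at 37 °C. Supernatant TNF-α measured by sandwich ELISA; concentration giving 50% TNF reduction derived by polynomial fit.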

[3] = test system: THP1 cells; assay: Lipopolysaccharide-activated THP1 cell TNF production assay; type: cell-based, human; settings: Homo sapiens, THP-1; LPS-induced TNF-α production in THP1 cells
How it was run: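 THP1 cells at 1E6/mL were stimulated with LPS (1 μg/mL prepared stock) alongside 3-fold serially diluted compound for 3 h at 37 °C. Secreted TNF-α was quantified by electrochemiluminescence sandwich immunoassay. Percent of DMSO control was fitted to a 4-parameter logistic equation.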

Sequence of p38α (Q16539 whole entry): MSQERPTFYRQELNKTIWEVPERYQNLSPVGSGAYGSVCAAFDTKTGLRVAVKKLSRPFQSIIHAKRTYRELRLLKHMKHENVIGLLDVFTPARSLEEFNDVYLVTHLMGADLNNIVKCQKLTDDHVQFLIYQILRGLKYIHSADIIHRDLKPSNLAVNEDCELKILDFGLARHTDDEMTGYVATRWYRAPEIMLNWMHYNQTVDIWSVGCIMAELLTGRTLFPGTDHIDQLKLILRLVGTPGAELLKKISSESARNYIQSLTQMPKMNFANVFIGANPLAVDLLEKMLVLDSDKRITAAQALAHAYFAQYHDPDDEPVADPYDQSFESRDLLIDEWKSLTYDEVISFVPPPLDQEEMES

IC50 [1] [nM]	IC50 [2] [nM]	IC50 [3] [nM]	SMILES
< 25	100 to 250	100 to 250	Cc1ccc(C(=O)Nc2ccnn2C)cc1-c1ccn2c(C(C)C)nnc2c1 [Example 28, 4-methyl-3-(3-(1-methylethyl)[1,2,4]triazolo[4,3-a]pyridin-7-yl)-N-(1-methyl-1H-pyrazol-5-yl)benzamide]
100 to 250	100 to 250	100 to 250	Cc1ccc(C(=O)NC2CC2)cc1-c1ccn2c(-c3cccnc3)nnc2c1 [Example 29, N-cyclopropyl-4-methyl-3-(3-(3-pyridinyl)[1,2,4]triazolo[4,3-a]pyridin-7-yl)benzamide]
< 25	25 to 100	25 to 100	Cc1ccc(C(=O)Nc2ccnn2C)cc1-c1ccn2c(-c3ccccc3F)nnc2c1 [Example 30, 3-(3-(2-fluorophenyl)[1,2,4]triazolo[4,3-a]pyridin-7-yl)-4-methyl-N-(1-methyl-1H-pyrazol-5-yl)benzamide]
25 to 100	250 to 1000	100 to 250	Cc1ccc(C(=O)NC2CC2)cc1-c1ccn2c(CC(F)(F)F)nnc2c1 [Example 31, N-cyclopropyl-4-methyl-3-(3-(2,2,2-trifluoroethyl)[1,2,4]triazolo[4,3-a]pyridin-7-yl)benzamide]
< 25	100 to 250	25 to 100	Cc1ccc(C(=O)NC2CC2)cc1-c1ccn2c(-c3ccccc3C)nnc2c1 [Example 32, N-cyclopropyl-4-methyl-3-(3-(2-methylphenyl)[1,2,4]triazolo[4,3-a]pyridin-7-yl)benzamide]
25 to 100	250 to 1000	100 to 250	Cc1ccc(C(=O)Nc2ccnn2C)cc1-c1ccn2c(-c3cccnc3C)nnc2c1 [Example 33, 4-methyl-N-(1-methyl-1H-pyrazol-5-yl)-3-(3-(2-methyl-3-pyridinyl)[1,2,4]triazolo[4,3-a]pyridin-7-yl)benzamide]
25 to 100	100 to 250	25 to 100	Cc1ccc(C(=O)NC2CC2)cc1-c1ccn2c(-c3cccnc3C)nnc2c1 [Example 34, N-cyclopropyl-4-methyl-3-(3-(2-methyl-3-pyridinyl)[1,2,4]triazolo[4,3-a]pyridin-7-yl)benzamide]
< 25	25 to 100	< 25	Cc1ccc(C(=O)NC2CC2)cc1-c1cc2nnc(-c3ccccc3Cl)n2cc1C [Example 35, 3-(3-(2-chlorophenyl)-6-methyl[1,2,4]triazolo[4,3-a]pyridin-7-yl)-N-cyclopropyl-4-methylbenzamide]
< 25	25 to 100	< 25	Cc1ccc(C(=O)Nc2ccnn2C)cc1-c1cc2nnc(-c3ccccc3Cl)n2cc1C [Example 36, 3-(3-(2-chlorophenyl)-6-methyl[1,2,4]triazolo[4,3-a]pyridin-7-yl)-4-methyl-N-(1-methyl-1H-pyrazol-5-yl)benzamide]
< 25	250 to 1000	100 to 250	Cc1ccc(C(=O)NC2CC2)cc1-c1ccn2c(-c3ccccc3)nnc2c1 [Example 37, N-cyclopropyl-4-methyl-3-(3-phenyl[1,2,4]triazolo[4,3-a]pyridin-7-yl)benzamide]
< 25	100 to 250	25 to 100	Cc1ccc(C(=O)NC2CC2)cc1-c1ccn2c(-c3cccc(F)c3Cl)nnc2c1 [Example 39, 3-(3-(2-chloro-3-fluorophenyl)[1,2,4]triazolo[4,3-a]pyridin-7-yl)-N-cyclopropyl-4-methylbenzamide]
25 to 100	100 to 250	25 to 100	CNC(=O)c1ccc(C)c(-c2ccn3c(-c4ccccc4Cl)nnc3c2)c1 [Example 40, 3-(3-(2-chlorophenyl)[1,2,4]triazolo[4,3-a]pyridin-7-yl)-N,4-dimethylbenzamide]
< 25	25 to 100	< 25	Cc1ccc(C(=O)Nc2ccnn2C)cc1-c1ccn2c(-c3cccc(F)c3Cl)nnc2c1 [Example 41, 3-(3-(2-chloro-3-fluorophenyl)[1,2,4]triazolo[4,3-a]pyridin-7-yl)-4-methyl-N-(1-methyl-1H-pyrazol-5-yl)benzamide]
< 25	100 to 250	25 to 100	Cc1ccc(C(=O)NC2CC2)cc1-c1ccn2c(-c3ccc(F)cc3Cl)nnc2c1 [Example 42, 3-(3-(2-chloro-4-fluorophenyl)[1,2,4]triazolo[4,3-a]pyridin-7-yl)-N-cyclopropyl-4-methylbenzamide]
25 to 100	250 to 1000	100 to 250	Cc1ccc(C(=O)NC(C)C)cc1-c1ccn2c(-c3ccccc3Cl)nnc2c1 [Example 43, 3-(3-(2-chlorophenyl)[1,2,4]triazolo[4,3-a]pyridin-7-yl)-4-methyl-N-(1-methylethyl)benzamide]
< 25	100 to 250	25 to 100	Cc1ccc(C(N)=O)cc1-c1ccn2c(-c3ccccc3Cl)nnc2c1 [Example 44, 3-(3-(2-chlorophenyl)[1,2,4]triazolo[4,3-a]pyridin-7-yl)-4-methylbenzamide]
< 25	100 to 250	< 25	Cc1ccc(C(=O)Nc2ccnn2C)cc1-c1ccn2c(-c3ccc(F)cc3Cl)nnc2c1 [Example 45, 3-(3-(2-chloro-4-fluorophenyl)[1,2,4]triazolo[4,3-a]pyridin-7-yl)-4-methyl-N-(1-methyl-1H-pyrazol-5-yl)benzamide]
< 25	25 to 100	< 25	Cc1ccc(C(=O)NC2CC2)cc1-c1ccn2c(-c3cc(F)ccc3Cl)nnc2c1 [Example 46, 3-(3-(2-chloro-5-fluorophenyl)[1,2,4]triazolo[4,3-a]pyridin-7-yl)-N-cyclopropyl-4-methylbenzamide]
< 25	25 to 100	< 25	Cc1ccc(C(=O)Nc2ccnn2C)cc1-c1ccn2c(-c3cc(F)ccc3Cl)nnc2c1 [Example 47, 3-(3-(2-chloro-5-fluorophenyl)[1,2,4]triazolo[4,3-a]pyridin-7-yl)-4-methyl-N-(1-methyl-1H-pyrazol-5-yl)benzamide]
< 25	100 to 250	100 to 250	Cc1ccc(C(=O)NC2CC2)cc1-c1ccn2c(-c3cc(F)c(F)cc3Cl)nnc2c1 [Example 48, 3-(3-(2-chloro-4,5-difluorophenyl)[1,2,4]triazolo[4,3-a]pyridin-7-yl)-N-cyclopropyl-4-methylbenzamide]
< 25	25 to 100	25 to 100	Cc1ccc(C(=O)Nc2ccnn2C)cc1-c1ccn2c(-c3cc(F)c(F)cc3Cl)nnc2c1 [Example 49, 3-(3-(2-chloro-4,5-difluorophenyl)[1,2,4]triazolo[4,3-a]pyridin-7-yl)-4-methyl-N-(1-methyl-1H-pyrazol-5-yl)benzamide]
< 25	< 25	< 25	Cc1c(F)cc(C(=O)NC2CC2)cc1-c1ccn2c(C(C)(C)C)nnc2c1 [Example 50, N-cyclopropyl-3-(3-(1,1-dimethylethyl)[1,2,4]triazolo[4,3-a]pyridin-7-yl)-5-fluoro-4-methylbenzamide]
< 25	25 to 100	< 25	Cc1c(F)cc(C(=O)NC2CC2)cc1-c1ccn2c(-c3ccccc3Cl)nnc2c1 [Example 51, 3-(3-(2-chlorophenyl)[1,2,4]triazolo[4,3-a]pyridin-7-yl)-N-cyclopropyl-5-fluoro-4-methylbenzamide]
< 25	100 to 250	100 to 250	CCNC(=O)c1ccc(C)c(-c2ccn3c(-c4ccccc4Cl)nnc3c2)c1 [Example 52, 3-(3-(2-chlorophenyl)[1,2,4]triazolo[4,3-a]pyridin-7-yl)-N-ethyl-4-methylbenzamide]
< 25	25 to 100	25 to 100	Cc1ccc(C(=O)NC2CC2)cc1-c1ccn2c(-c3sccc3C)nnc2c1 [Example 53, N-cyclopropyl-4-methyl-3-(3-(3-methyl-2-thienyl)[1,2,4]triazolo[4,3-a]pyridin-7-yl)benzamide]
< 25	25 to 100	< 25	Cc1ccc(C(=O)Nc2ccnn2C)cc1-c1ccn2c(-c3sccc3C)nnc2c1 [Example 54, 4-methyl-N-(1-methyl-1H-pyrazol-5-yl)-3-(3-(3-methyl-2-thienyl)[1,2,4]triazolo[4,3-a]pyridin-7-yl)benzamide]
< 25	25 to 100	< 25	Cc1ccc(C(=O)NC2CC2)cc1-c1ccn2c(-c3sccc3Cl)nnc2c1 [Example 55, 3-(3-(3-chloro-2-thienyl)[1,2,4]triazolo[4,3-a]pyridin-7-yl)-N-cyclopropyl-4-methylbenzamide]
< 25	< 25	< 25	Cc1c(F)cc(C(=O)NC2CC2)cc1-c1ccn2c(-c3c(F)cccc3Cl)nnc2c1 [Example 56, 3-(3-(2-chloro-6-fluorophenyl)[1,2,4]triazolo[4,3-a]pyridin-7-yl)-N-cyclopropyl-5-fluoro-4-methylbenzamide]
25 to 100	250 to 1000	250 to 1000	Cc1ccc(C(=O)NC2CC2)cc1-c1ccn2c(-c3ocnc3C)nnc2c1 [Example 57, N-cyclopropyl-4-methyl-3-(3-(4-methyl-1,3-oxazol-5-yl)[1,2,4]triazolo[4,3-a]pyridin-7-yl)benzamide]

Reference: US7700593B2, “Imidazo- and triazolo-pyridine compounds and methods of use thereof” (Amgen Inc., priority 2006, dated 2010)
